Data: patent publication US9695155B2, “Herbicidal substituted pyrimidinyloxy benzene compounds” (E. I. DU PONT DE NEMOURS AND COMPANY, priority 2013, dated 2017)

Assays:
[1] = system: ragweed; test: Test C preemergence; assay type: in vivo, Ambrosia elatior; conditions: Ambrosia artemisiifolia, pre-emergence
Outline: (§1)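 Plants were kept under greenhouse conditions for 13–15 days following spray. Pre-emergent application went to soil (loam–sand), post-emergent to foliage at 1–4 leaves. Evaluation: visual, percent control against untreated checks.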

[2] = system: soybean; test: Test C preemergence; assay type: in vivo, Glycine max; conditions: Glycine max, pre-emergence
Outline: as §1

[3] = system: ragweed; test: Test A preemergence; assay type: in vivo, Ambrosia elatior; conditions: 0 to 100 scale where 0 is no effect and 100 is complete control
Outline: (§2)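 Visual 0–100 rating (100 = complete control) taken about 10 d post-treatment relative to untreated checks. Preemergence: directed soil spray on sown loam/sand pots. Postemergence: seedlings 2–10 cm, 1–2 leaf. Non-phytotoxic solvent formulation with surfactant.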

[4] = system: pigweed; test: Test C preemergence; assay type: in vivo, Amaranthus retroflexus; conditions: Amaranthus retroflexus, pre-emergence
Outline: as §1

[5] = system: waterhemp; test: Test C preemergence; assay type: in vivo, Amaranthus rudis; conditions: Amaranthus tuberculatus, pre-emergence
Outline: as §1

[6] = system: giant foxtail; test: Test C preemergence; assay type: in vivo, Setaria faberii; conditions: Setaria faberi, pre-emergence
Outline: as §1

[7] = system: large (Lg) crabgrass; test: Test C preemergence; assay type: in vivo, Digitaria sanguinalis; conditions: Digitaria sanguinalis, pre-emergence
Outline: as §1

[8] = system: barnyardgrass; test: Test C preemergence; assay type: in vivo, Echinochloa crus-galli; conditions: Echinochloa crus-galli, pre-emergence
Outline: as §1

[9] = system: ragweed; test: Test A postemergence; assay type: in vivo, Ambrosia elatior; conditions: 0 to 100 scale where 0 is no effect and 100 is complete control
Outline: as §2

[10] = system: blackgrass; test: Test A postemergence; assay type: in vivo, Alopecurus myosuroides; conditions: 0 to 100 scale where 0 is no effect and 100 is complete control
Outline: as §2

[11] = system: yellow nutsedge; test: Test C preemergence; assay type: in vivo, Cyperus esculentus; conditions: Cyperus, pre-emergence
Outline: as §1

[12] = system: lambsquarters; test: Test C preemergence; assay type: in vivo, Chenopodium album; conditions: Chenopodium album, pre-emergence
Outline: as §1

[13] = system: wheat, winter; test: Test C preemergence; assay type: in vivo, Triticum aestivum; conditions: Triticum aestivum, pre-emergence
Outline: as §1

[14] = system: velvetleaf; test: Test C preemergence; assay type: in vivo, Abutilon theophrasti; conditions: Abutilon theophrasti, pre-emergence
Outline: as §1

[15] = system: blackgrass; test: Test C preemergence; assay type: in vivo, Alopecurus myosuroides; conditions: Alopecurus myosuroides, pre-emergence
Outline: as §1

[16] = system: oilseed rape; test: Test C preemergence; assay type: in vivo, Brassica napus; conditions: Brassica napus, pre-emergence
Outline: as §1

[17] = system: galium; test: Test A postemergence; assay type: in vivo, Galium aparine; conditions: 0 to 100 scale where 0 is no effect and 100 is complete control
Outline: as §2

[18] = system: kochia; test: Test A postemergence; assay type: in vivo, Kochia scoparia; conditions: 0 to 100 scale where 0 is no effect and 100 is complete control
Outline: as §2

`N#Cc1cccc(Oc2ncc(Cl)cn2)c1-n1cc(SC(F)(F)F)cn1` [Compound 134, 3-[(5-chloro-2-pyrimidinyl)oxy]-2-[4-(trifluoromethylthio)-1-pyrazolyl]benzonitrile] showed a pest or weed control at 16 g/ha ([1]; 16 g ai/ha, preemergence, scale 0 to 100 (0 no effect, 100 complete control), read-out: Ragweed plant response rating) of 0%, a pest or weed control at 62 g/ha ([1]; 62 g ai/ha, preemergence, scale 0 (no effect) to 100 (complete control), read-out: Ragweed plant response rating) of 55% and a pest or weed control at 125 g/ha ([1]; 125 g ai/ha, preemergence, scale 0 (no effect) to 100 (complete control), read-out: Ragweed plant response rating) of 50%. It also gave a pest or weed control at 31 g/ha ([1]; Preemergence, 31 g ai/ha, scale 0 to 100, 0 no effect, 100 complete control, read-out: Plant response rating, Ragweed) of 25%, a plant injury at 16 g/ha ([2]; 16 g ai/ha, preemergence, scale 0 to 100 (0 no effect, 100 complete control), read-out: Soybean plant response rating) of 0% and a plant injury at 62 g/ha ([2]; 62 g ai/ha, preemergence, scale 0 (no effect) to 100 (complete control), read-out: Soybean plant response rating) of 20%. For the same compound, the plant injury at 125 g/ha ([2]; 125 g ai/ha, preemergence, scale 0 (no effect) to 100 (complete control), read-out: Soybean plant response rating) was 55%, the plant injury at 31 g/ha ([2]; Preemergence, 31 g ai/ha, scale 0 to 100, 0 no effect, 100 complete control, read-out: Plant response rating, Soybean) was 15% and the “Plant response rating, Ragweed” value ([3]; 125 g ai/ha) was 60. The “Ragweed plant response rating” value ([3]; 500 g ai/ha) was 80, the pest or weed control at 16 g/ha ([4]; 16 g ai/ha, preemergence, scale 0 to 100 (0 no effect, 100 complete control), read-out: Pigweed plant response rating) was 100% and the pest or weed control at 62 g/ha ([4]; 62 g ai/ha, preemergence, scale 0 (no effect) to 100 (complete control), read-out: Pigweed plant response rating) was 100%. For the same compound, the pest or weed control at 125 g/ha ([4]; 125 g ai/ha, preemergence, scale 0 (no effect) to 100 (complete control), read-out: Pigweed plant response rating) was 100%, the pest or weed control at 31 g/ha ([4]; Preemergence, 31 g ai/ha, scale 0 to 100, 0 no effect, 100 complete control, read-out: Plant response rating, Pigweed) was 100% and the pest or weed control at 16 g/ha ([5]; 16 g ai/ha, preemergence, scale 0 to 100 (0 no effect, 100 complete control), read-out: Waterhemp plant response rating) was 85%. It also gave a pest or weed control at 62 g/ha ([5]; 62 g ai/ha, preemergence, scale 0 (no effect) to 100 (complete control), read-out: Waterhemp plant response rating) of 100%, a pest or weed control at 125 g/ha ([5]; 125 g ai/ha, preemergence, scale 0 (no effect) to 100 (complete control), read-out: Waterhemp plant response rating) of 100% and a pest or weed control at 31 g/ha ([5]; Preemergence, 31 g ai/ha, scale 0 to 100, 0 no effect, 100 complete control, read-out: Plant response rating, Waterhemp) of 100%. It also gave a pest or weed control at 16 g/ha ([6]; 16 g ai/ha, preemergence, scale 0 to 100 (0 no effect, 100 complete control), read-out: Foxtail, Giant plant response rating) of 10%, a pest or weed control at 62 g/ha ([6]; 62 g ai/ha, preemergence, scale 0 (no effect) to 100 (complete control), read-out: Foxtail, Giant plant response rating) of 100% and a pest or weed control at 125 g/ha ([6]; 125 g ai/ha, preemergence, scale 0 (no effect) to 100 (complete control), read-out: Foxtail, Giant plant response rating) of 100%. The pest or weed control at 31 g/ha ([6]; Preemergence, 31 g ai/ha, scale 0 to 100, 0 no effect, 100 complete control, read-out: Plant response rating, Foxtail, Giant) was 65%, the pest or weed control at 16 g/ha ([7]; 16 g ai/ha, preemergence, scale 0 to 100 (0 no effect, 100 complete control), read-out: Crabgrass, Large plant response rating) was 60% and the pest or weed control at 62 g/ha ([7]; 62 g ai/ha, preemergence, scale 0 (no effect) to 100 (complete control), read-out: Crabgrass, Large plant response rating) was 98%. For the same compound, the pest or weed control at 125 g/ha ([7]; 125 g ai/ha, preemergence, scale 0 (no effect) to 100 (complete control), read-out: Crabgrass, Large plant response rating) was 100%, the pest or weed control at 31 g/ha ([7]; Preemergence, 31 g ai/ha, scale 0 to 100, 0 no effect, 100 complete control, read-out: Plant response rating, Crabgrass, Large) was 98% and the pest or weed control at 16 g/ha ([8]; 16 g ai/ha, preemergence, scale 0 to 100 (0 no effect, 100 complete control), read-out: Barnyardgrass plant response rating) was 0%. It also gave a pest or weed control at 62 g/ha ([8]; 62 g ai/ha, preemergence, scale 0 (no effect) to 100 (complete control), read-out: Barnyardgrass plant response rating) of 60%, a pest or weed control at 125 g/ha ([8]; 125 g ai/ha, preemergence, scale 0 (no effect) to 100 (complete control), read-out: Barnyardgrass plant response rating) of 85% and a pest or weed control at 31 g/ha ([8]; Preemergence, 31 g ai/ha, scale 0 to 100, 0 no effect, 100 complete control, read-out: Plant response rating, Barnyardgrass) of 15%. The “Ragweed plant response rating” value ([9]; 125 g ai/ha) was 50, the “Plant response rating, Ragweed” value ([9]; 500 g ai/ha) was 60 and the “Blackgrass plant response rating” value ([10]; 125 g ai/ha) was 30. For the same compound, the “Plant response rating, Blackgrass” value ([10]; 500 g ai/ha) was 90, the pest or weed control at 16 g/ha ([11]; 16 g ai/ha, preemergence, scale 0 to 100 (0 no effect, 100 complete control), read-out: Nutsedge, Yellow plant response rating) was 0% and the pest or weed control at 62 g/ha ([11]; 62 g ai/ha, preemergence, scale 0 (no effect) to 100 (complete control), read-out: Nutsedge, Yellow plant response rating) was 0%. It also gave a pest or weed control at 125 g/ha ([11]; 125 g ai/ha, preemergence, scale 0 (no effect) to 100 (complete control), read-out: Nutsedge, Yellow plant response rating) of 10%, a pest or weed control at 31 g/ha ([11]; Preemergence, 31 g ai/ha, scale 0 to 100, 0 no effect, 100 complete control, read-out: Plant response rating, Nutsedge, Yellow) of 0% and a pest or weed control at 16 g/ha ([12]; 16 g ai/ha, preemergence, scale 0 to 100 (0 no effect, 100 complete control), read-out: Lambsquarters plant response rating) of 60%. It also gave a pest or weed control at 62 g/ha ([12]; 62 g ai/ha, preemergence, scale 0 (no effect) to 100 (complete control), read-out: Lambsquarters plant response rating) of 100%, a pest or weed control at 125 g/ha ([12]; 125 g ai/ha, preemergence, scale 0 (no effect) to 100 (complete control), read-out: Lambsquarters plant response rating) of 100% and a pest or weed control at 31 g/ha ([12]; Preemergence, 31 g ai/ha, scale 0 to 100, 0 no effect, 100 complete control, read-out: Plant response rating, Lambsquarters) of 100%. It also gave a plant injury at 16 g/ha ([13]; 16 g ai/ha, preemergence, scale 0 to 100 (0 no effect, 100 complete control), read-out: Wheat plant response rating) of 0%, a plant injury at 62 g/ha ([13]; 62 g ai/ha, preemergence, scale 0 (no effect) to 100 (complete control), read-out: Wheat plant response rating) of 0% and a plant injury at 125 g/ha ([13]; 125 g ai/ha, preemergence, scale 0 (no effect) to 100 (complete control), read-out: Wheat plant response rating) of 15%. For the same compound, the plant injury at 31 g/ha ([13]; Preemergence, 31 g ai/ha, scale 0 to 100, 0 no effect, 100 complete control, read-out: Plant response rating, Wheat) was 0%, the pest or weed control at 16 g/ha ([14]; 16 g ai/ha, preemergence, scale 0 to 100 (0 no effect, 100 complete control), read-out: Velvetleaf plant response rating) was 30% and the pest or weed control at 62 g/ha ([14]; 62 g ai/ha, preemergence, scale 0 (no effect) to 100 (complete control), read-out: Velvetleaf plant response rating) was 85%. It also gave a pest or weed control at 125 g/ha ([14]; 125 g ai/ha, preemergence, scale 0 (no effect) to 100 (complete control), read-out: Velvetleaf plant response rating) of 100%, a pest or weed control at 31 g/ha ([14]; Preemergence, 31 g ai/ha, scale 0 to 100, 0 no effect, 100 complete control, read-out: Plant response rating, Velvetleaf) of 35% and a pest or weed control at 16 g/ha ([15]; 16 g ai/ha, preemergence, scale 0 to 100 (0 no effect, 100 complete control), read-out: Blackgrass plant response rating) of 0%. The pest or weed control at 62 g/ha ([15]; 62 g ai/ha, preemergence, scale 0 (no effect) to 100 (complete control), read-out: Blackgrass plant response rating) was 85%, the pest or weed control at 125 g/ha ([15]; 125 g ai/ha, preemergence, scale 0 (no effect) to 100 (complete control), read-out: Blackgrass plant response rating) was 98% and the pest or weed control at 31 g/ha ([15]; Preemergence, 31 g ai/ha, scale 0 to 100, 0 no effect, 100 complete control, read-out: Plant response rating, Blackgrass) was 45%. For the same compound, the plant injury at 16 g/ha ([16]; 16 g ai/ha, preemergence, scale 0 to 100 (0 no effect, 100 complete control), read-out: Oilseed Rape plant response rating) was 20%, the plant injury at 62 g/ha ([16]; 62 g ai/ha, preemergence, scale 0 (no effect) to 100 (complete control), read-out: Oilseed Rape plant response rating) was 100% and the plant injury at 125 g/ha ([16]; 125 g ai/ha, preemergence, scale 0 (no effect) to 100 (complete control), read-out: Oilseed Rape plant response rating) was 100%. The plant injury at 31 g/ha ([16]; Preemergence, 31 g ai/ha, scale 0 to 100, 0 no effect, 100 complete control, read-out: Plant response rating, Oilseed Rape) was 45%, the “Galium plant response rating” value ([17]; 125 g ai/ha) was 100 and the “Plant response rating, Galium” value ([17]; 500 g ai/ha) was 100. The “Kochia plant response rating” value ([18]; 125 g ai/ha) was 90 and the “Plant response rating, Kochia” value ([18]; 500 g ai/ha) was 100.
